# In publication doi:10.1101/2024.09.20.614104v2, “SATAY-Based Chemogenomic Screening uncovers Antifungal Resistance Mechanisms and Key Determinants of ATI-2307 and Chitosan Sensitivity” (biorxiv, 2024):
# Tests used:
# Hol1 = target: T1, Hol1 (Saccharomyces cerevisiae, UniProt P53389); experiment: LC-MS quantification of cellular uptake, wild-type versus hol1 deletion cells; assay type: cell-based; conditions: SC 2% ethanol, 30 °C, not an affinity constant
# T1 construct: full-length native plasma membrane polyamine transporter in wild-type yeast; hol1 deletion strain as control
# CaHOL1 = target: T2, CaHOL1 (Candida albicans, UniProt Q5AP74); experiment: LC-MS quantification of cellular uptake, hol1 deletion cells with or without CaHOL1 plasmid; assay type: cell-based; conditions: 0.003 μg/mL ATI-2307, 2 h, SC -URA 2% ethanol, 30 °C
# T2 construct: gene HOL1; full-length CDS PCR-amplified from genomic DNA, expressed from plasmid pBK994 in S. cerevisiae hol1 deletion strain
# T2 sequence (Q5AP74 entry or part of it): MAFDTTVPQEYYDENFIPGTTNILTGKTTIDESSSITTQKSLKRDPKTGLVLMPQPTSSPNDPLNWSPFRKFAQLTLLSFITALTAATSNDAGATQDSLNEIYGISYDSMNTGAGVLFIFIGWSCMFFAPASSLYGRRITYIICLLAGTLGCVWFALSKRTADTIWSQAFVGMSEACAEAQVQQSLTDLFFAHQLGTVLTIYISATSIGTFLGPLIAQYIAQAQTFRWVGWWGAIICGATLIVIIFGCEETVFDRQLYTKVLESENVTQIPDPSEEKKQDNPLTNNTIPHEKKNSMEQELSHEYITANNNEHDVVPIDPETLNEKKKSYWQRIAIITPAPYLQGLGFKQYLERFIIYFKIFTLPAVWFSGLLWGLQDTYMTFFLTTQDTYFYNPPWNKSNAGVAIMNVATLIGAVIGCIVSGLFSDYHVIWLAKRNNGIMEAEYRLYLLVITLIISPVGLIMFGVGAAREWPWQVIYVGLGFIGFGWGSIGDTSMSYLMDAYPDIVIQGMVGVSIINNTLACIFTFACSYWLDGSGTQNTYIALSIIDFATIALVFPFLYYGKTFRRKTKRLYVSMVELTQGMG
# T1 sequence (P53389 whole entry): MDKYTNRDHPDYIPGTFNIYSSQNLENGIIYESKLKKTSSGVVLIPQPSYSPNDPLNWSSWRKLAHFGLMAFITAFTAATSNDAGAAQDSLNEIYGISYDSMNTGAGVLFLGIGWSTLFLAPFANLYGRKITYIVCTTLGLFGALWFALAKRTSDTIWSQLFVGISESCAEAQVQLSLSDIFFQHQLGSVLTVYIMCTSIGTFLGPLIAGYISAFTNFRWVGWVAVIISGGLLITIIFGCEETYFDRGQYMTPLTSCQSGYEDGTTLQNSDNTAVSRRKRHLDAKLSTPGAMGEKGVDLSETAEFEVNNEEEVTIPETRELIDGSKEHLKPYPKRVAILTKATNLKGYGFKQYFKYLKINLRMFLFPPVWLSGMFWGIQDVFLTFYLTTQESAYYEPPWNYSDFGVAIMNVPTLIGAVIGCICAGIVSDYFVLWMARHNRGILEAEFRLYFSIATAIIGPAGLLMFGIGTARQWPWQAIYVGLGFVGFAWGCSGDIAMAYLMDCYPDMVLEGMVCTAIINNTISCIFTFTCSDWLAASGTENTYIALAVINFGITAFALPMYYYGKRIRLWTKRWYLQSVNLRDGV
Structure (SMILES),"uptake, μg per gram of WT pellet (Hol1; 1 μg/mL Iminoctadine, 2 h) [μg/g pellet]","uptake, μg per gram of WT pellet (Hol1; 0.003 μg/mL ATI-2307, 2 h) [μg/g pellet]","LC-MS quantification of cellular uptake, hol1 deletion cells with or without CaH (CaHOL1)"
N=C(N)NCCCCCCCCNCCCCCCCCNC(=N)N [Iminoctadine],52.5,–,–
N=C(N)c1ccc(OCCCC2CCN(CCCOc3ccc(C(=N)N)cc3)CC2)cc1 [ATI-2307],–,0.1,heterologous expression of C. albicans HOL1 (CaHOL1) partially restored ATI-2307 uptake
